Data set [1] deals with MDA-MB-436. The experiment in a line: Antiproliferative activity against human MDA-MB-436 cells assessed as reduction in cell viability incubated for 7 days by CCK-8 assay. It counts as functional, cell-based. To be noted: MDA-MB-436, 168 h. A general note: Tetrazolium assays rely on reduction of a dye to a coloured formazan, in cell work by metabolically active cells.
Data set [2] concerns the target T1, Poly [ADP-ribose] polymerase 1 (Homo sapiens, UniProt P09874). The data set is described as follows: Inhibition of PARP1 (unknown origin) at 1 nM preincubated with compound for 10 mins followed by DNA and NAD+ addition and measured after 60 mins by chemiluminescence based envision reader analysis relative to control. To be noted: time 70.0 min.
Data set [3] concerns the target T2, Poly [ADP-ribose] polymerase 2 (Homo sapiens, UniProt Q9UGN5). The data set is described as follows: Inhibition of PARP2 (unknown origin) preincubated with compound for 10 mins followed by DNA and NAD+ addition and measured after 60 mins by chemiluminescence based envision reader analysis.
The target of data set [4] is T2, Poly [ADP-ribose] polymerase 2. The data set is described as follows: Inhibition of PARP2 (unknown origin) at 1 uM preincubated with compound for 10 mins followed by DNA and NAD+ addition and measured after 60 mins by chemiluminescence based envision reader analysis relative to control. To be noted: time 70.0 min.
Data set [5] has as its target T1, Poly [ADP-ribose] polymerase 1. The experiment in a line: Inhibition of PARP1 (unknown origin) preincubated with compound for 10 mins followed by DNA and NAD+ addition and measured after 60 mins by chemiluminescence based envision reader analysis.
The subject of data set [6] is MDA-MB-436. The experiment in a line: Antiproliferative activity against human MDA-MB-436 cells assessed as inhibition of cell proliferation at 100 nM incubated for 7 days by CCK-8 assay relative to control. It counts as functional. To be noted: MDA-MB-436, 168 h, time 7 day.
Data set [7] is described as follows: Half life in male Balb/c mouse at 1 mg/kg, po measured upto 96 hrs by LC-MS/MS analysis. It counts as ADME, organism-based. To be noted: male, Balb/c, in vivo.
Data set [8] is described as follows: Cmax in male Balb/c mouse at 1 mg/kg, po measured upto 96 hrs by LC-MS/MS analysis. In kind it is ADME, organism-based. To be noted: in vivo.
Data set [9] can be described thus: Clearance in male Balb/c mouse at 1 mg/kg, po measured upto 96 hrs by LC-MS/MS analysis. To be noted: male, Balb/c, in vivo. It counts as ADME, organism-based.
A short description of data set [10]: AUC(0 to t) in male Balb/c mouse at 1 mg/kg, po measured upto 96 hrs by LC-MS/MS analysis. In kind it is ADME, organism-based. To be noted: male, Balb/c, in vivo.

Broadly, the IC50 is the concentration at which inhibition is half-maximal. As usually defined, the inhibition is the change of the read-out against control, counted positive when it falls. By half-life is commonly meant the time needed for the level to fall by half in the phase considered. A lower half-life goes with rapid decline. As a reminder, the Cmax is the highest concentration seen after dosing. Broadly, the CL/F is clearance divided by bioavailability, as obtained after extravascular dosing. By AUC(0-t) is commonly meant the area under the concentration-time curve up to a stated or last time point. Lower therefore signals less exposure.

T2 sequence (Q9UGN5 whole entry): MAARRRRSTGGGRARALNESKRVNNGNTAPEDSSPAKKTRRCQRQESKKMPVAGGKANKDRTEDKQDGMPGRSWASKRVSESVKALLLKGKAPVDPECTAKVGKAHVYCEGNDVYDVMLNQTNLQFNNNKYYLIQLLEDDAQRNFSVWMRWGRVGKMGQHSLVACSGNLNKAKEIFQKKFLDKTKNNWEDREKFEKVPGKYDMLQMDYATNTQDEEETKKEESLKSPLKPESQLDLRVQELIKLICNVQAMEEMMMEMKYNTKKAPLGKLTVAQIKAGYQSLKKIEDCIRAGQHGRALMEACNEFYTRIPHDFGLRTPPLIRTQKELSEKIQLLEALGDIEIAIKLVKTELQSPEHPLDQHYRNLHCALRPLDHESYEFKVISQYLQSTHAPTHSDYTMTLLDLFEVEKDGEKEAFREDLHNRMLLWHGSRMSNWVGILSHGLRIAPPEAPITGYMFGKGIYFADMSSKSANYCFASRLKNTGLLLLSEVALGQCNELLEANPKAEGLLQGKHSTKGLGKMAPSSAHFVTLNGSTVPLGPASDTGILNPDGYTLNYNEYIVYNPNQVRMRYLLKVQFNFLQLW
T1 sequence (P09874 whole entry): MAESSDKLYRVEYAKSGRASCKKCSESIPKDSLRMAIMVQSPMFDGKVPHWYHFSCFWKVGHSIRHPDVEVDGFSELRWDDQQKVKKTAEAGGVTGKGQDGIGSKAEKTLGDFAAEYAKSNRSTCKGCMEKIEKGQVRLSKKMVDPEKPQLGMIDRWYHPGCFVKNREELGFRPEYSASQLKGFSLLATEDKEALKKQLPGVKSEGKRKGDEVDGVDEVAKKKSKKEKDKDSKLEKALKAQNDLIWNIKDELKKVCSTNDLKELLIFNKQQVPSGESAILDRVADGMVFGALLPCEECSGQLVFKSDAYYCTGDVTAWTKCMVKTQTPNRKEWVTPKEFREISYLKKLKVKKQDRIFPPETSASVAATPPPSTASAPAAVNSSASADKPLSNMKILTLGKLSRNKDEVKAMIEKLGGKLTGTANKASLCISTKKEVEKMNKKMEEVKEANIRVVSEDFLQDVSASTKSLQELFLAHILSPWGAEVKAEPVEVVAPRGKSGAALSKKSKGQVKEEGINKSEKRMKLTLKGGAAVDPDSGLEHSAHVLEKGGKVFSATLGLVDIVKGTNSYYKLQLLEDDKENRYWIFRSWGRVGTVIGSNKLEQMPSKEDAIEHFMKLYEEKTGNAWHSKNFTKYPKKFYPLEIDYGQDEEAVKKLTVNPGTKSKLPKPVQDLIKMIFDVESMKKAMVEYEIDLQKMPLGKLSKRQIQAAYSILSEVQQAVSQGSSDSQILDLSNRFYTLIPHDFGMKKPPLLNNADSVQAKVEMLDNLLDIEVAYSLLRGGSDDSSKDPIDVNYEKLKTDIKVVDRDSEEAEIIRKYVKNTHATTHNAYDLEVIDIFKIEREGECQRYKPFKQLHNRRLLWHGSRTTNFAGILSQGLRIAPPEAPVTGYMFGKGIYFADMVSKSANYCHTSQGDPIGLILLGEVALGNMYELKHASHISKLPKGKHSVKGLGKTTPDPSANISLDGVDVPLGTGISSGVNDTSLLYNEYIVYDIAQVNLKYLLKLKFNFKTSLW

On to `CCc1cc2ncc(CN3CC=C(c4ccc(F)cn4)CC3)cc2[nH]c1=O`, for which the IC50 in the data set on MDA-MB-436 [1] is 6.5 nM; in data set [3], 65 nM; in data set [5] it was 0.28 nM. Further, the inhibition came out at 91.4% in data set [2] and 93.9% in data set [4].
Turning to `CCc1cc2ncc(CN3CC=C(c4cc(C)c(F)c(C)c4)CC3)cc2[nH]c1=O`, in the data set on MDA-MB-436 [6], the inhibition at 0.1 µM was 23.6%. In addition, the inhibition in data set [2] is -3.8%.
The like results for `CCc1cc2ncc(CN3CC=C(c4ccc(C)c(F)c4)CC3)cc2[nH]c1=O` were, in that order, 28.2% and 54.4%.
Regarding `CNC(=O)c1ccc(N2CCN(Cc3cnc4cc(C)c(=O)[nH]c4c3)CC2)c(F)n1`, the 50% inhibitory concentration (IC50) amounted to 114 nM in the data set with MDA-MB-436 [1], 19 nM in data set [3] and 0.32 nM in data set [5]. Moreover, the inhibition came out at 75% in [2] and 98.3% in data set [4].
As for `CCc1cc2ncc(CN3CCN(c4ccc(C(=O)NC)nc4F)CC3)c(F)c2[nH]c1=O`, the IC50 in the data set on MDA-MB-436 [1] came to 43.1 nM.
As for `CCc1cc2ncc(CN3CC=C(c4ccccc4C#N)CC3)cc2[nH]c1=O`, the inhibition at 0.1 µM with MDA-MB-436 [6] worked out at 44.8%. The inhibition in data set [2] came to 51.6%.
Regarding `CCc1cc2ncc(CN3CC=C(c4ccc(C#N)s4)CC3)cc2[nH]c1=O`, in the data set with MDA-MB-436 [6], the inhibition at 0.1 µM worked out at 45%. In addition, in data set [2], the inhibition is 46.2%.
The like results for `CCc1cc2ncc(CN3CC=C(c4ccc(C(=O)NC)nc4OC)CC3)cc2[nH]c1=O` were, in that order, 31.3% and 38.8%.
Consider `CCc1cc2ncc(CN3CC=C(c4cccnc4N)CC3)cc2[nH]c1=O`, for which the inhibition at 0.1 µM in the data set with MDA-MB-436 [6] was 14.4%. The inhibition in [2] came out at 56.5%.
The like results for `CCc1cc2ncc(CN3CC=C(c4cnc5ccnn5c4)CC3)cc2[nH]c1=O` were, in that order, 13.6% and 46.3%.
`CCc1cc2ncc(CN3CC=C(c4ccc(C#N)cc4F)CC3)cc2[nH]c1=O`: the results for the IC50 (in the data set on MDA-MB-436 [1]; in data set [3]; in [5]) were 5.3 nM, 62 nM and 0.17 nM, respectively. The inhibition in [2] amounted to 96.9%; in data set [4], 92.3%.
In the case of `CCc1nc2ccc(CN3CCN(c4ccc(C(=O)NC)nc4F)CC3)c(F)c2[nH]c1=O`, the IC50 in the data set with MDA-MB-436 [1] amounted to 87.1 nM.
On to `CCc1cc2ncc(CN3CC=C(c4ccc(C(=O)NC)c(F)c4F)CC3)cc2[nH]c1=O`, for which, in the data set with MDA-MB-436 [6], the inhibition at 0.1 µM is 16.1%. In data set [2], the inhibition is 46.1%.
In the same order, the values of `CCc1cc2ncc(CN3CC=C(c4ccc(N)nc4)CC3)cc2[nH]c1=O` are 31.1% and 10%.
As for `CCc1cc2ncc(CN3CCN(c4ccc(C#N)cc4F)CC3)cc2[nH]c1=O`, the 50% inhibitory concentration (IC50) with MDA-MB-436 [1] was 4.1 nM.
For `CCc1cc2ncc(CN3CC=C(c4ccc(C#N)c(F)c4F)CC3)cc2[nH]c1=O`, the inhibition at 0.1 µM in the data set on MDA-MB-436 [6] was 45.1%. In addition, the inhibition in data set [2] worked out at 54.7%.
Regarding `CCc1cc2ncc(CN3CC=C(c4ccc(C(F)(F)F)nc4)CC3)cc2[nH]c1=O`, in the data set with MDA-MB-436 [6], the inhibition at 0.1 µM is -4.1%. The inhibition in [2] was 56.9%; in data set [4], 82.3%.
`CCc1cc2ncc(CN3CC=C(c4ccc(C)cc4F)CC3)cc2[nH]c1=O`: the inhibition at 0.1 µM in the data set on MDA-MB-436 [6] turned out to be 5%. Besides, the inhibition in data set [2] was 61.7%; in data set [4], 75.4%.
`CCc1cc2ncc(CN3CC=C(c4ccc([N+](=O)[O-])cc4F)CC3)cc2[nH]c1=O`: the half-inhibitory concentration (IC50) in the data set on MDA-MB-436 [1] turned out to be 25.7 nM; in data set [3], 37 nM; in [5] it was 0.47 nM. In addition, the inhibition stood at 72.1% in [2] and 98.1% in data set [4].
As to `CCc1cc2ncc(CN3CCN(c4cc(F)c(C#N)cn4)CC3)cc2[nH]c1=O`, the half-maximal inhibitory concentration (IC50) in the data set on MDA-MB-436 [1] stood at 1.9 nM. Moreover, the half-life in data set [7] was 6.3 h. The compound also returned a Cmax in data set [8] of 2250 ng/mL. This compound also had a CL/F in [9] of 1 mL/min/kg. The compound further returned an AUC(0-t) at 96 h in data set [10] of 16000 ng·h/mL.
As to `CCc1cc2ncc(CN3CC=C(c4ccc(F)c(C)c4)CC3)cc2[nH]c1=O`, in the data set on MDA-MB-436 [6], the inhibition at 0.1 µM was 30.2%. In addition, the inhibition in [2] came out at 46.6%.
For `CCc1cc2ncc(CN3CC=C(c4ncccc4C(=O)NC)CC3)cc2[nH]c1=O`, in the data set on MDA-MB-436 [6], the inhibition at 0.1 µM turned out to be 26.7%. The inhibition in data set [2] is 15%.
With `CCc1cc2ncc(CN3CC=C(c4cnc(F)c(F)c4)CC3)cc2[nH]c1=O`, the inhibition at 0.1 µM in the data set with MDA-MB-436 [6] worked out at 37.7%. Besides, the figures for the inhibition in data set [2] and in data set [4] were 72.3% and 77.3%, respectively.
Regarding `CCc1cc2ncc(CN3CC=C(c4cc(F)c(C#N)c(F)c4)CC3)cc2[nH]c1=O`, the inhibition at 0.1 µM in the data set on MDA-MB-436 [6] came out at 51.9%. In the data set on MDA-MB-436 [1], the IC50 is 16.3 nM. Moreover, the inhibition in data set [2] turned out to be 31.3%.
Turning to `CCc1cc2ncc(CN3CC=C(c4ncccc4C#N)CC3)cc2[nH]c1=O`, in the data set with MDA-MB-436 [6], the inhibition at 0.1 µM was found to be 5.9%. For the same compound, in data set [2], the inhibition is -9.3%.
The like results for `CCc1cc2ncc(CN3CC=C(c4ccc(C(=O)NC)nc4N)CC3)cc2[nH]c1=O` were, in that order, 19.5% and 27.2%.
Take `CCc1cc2ncc(CN3CC=C(c4cc(F)c(C#N)cn4)CC3)cc2[nH]c1=O`: the figures for the 50% inhibitory concentration (IC50) (in the data set with MDA-MB-436 [1]; in data set [3]; in data set [5]) were 2.8 nM, 130 nM and 0.28 nM, respectively. The inhibition in data set [2] came to 88.6%; in data set [4], 87.4%. In [7], this compound gave a half-life of 5.26 h. In data set [8], the Cmax came to 3020 ng/mL. Further, the apparent clearance CL/F in data set [9] is 1 mL/min/kg. This compound displayed an exposure AUC(0-t) at 96 h in data set [10] of 16400 ng·h/mL.
In the case of `CCc1cc2ncc(CN3CC=C(c4cnc(C#N)cn4)CC3)cc2[nH]c1=O`, in the data set with MDA-MB-436 [6], the inhibition at 0.1 µM worked out at 47.5%. Moreover, the inhibition in [2] stood at 45.8%.
On to `CCc1cc2ncc(CN3CC=C(c4ccc(OC)nc4C)CC3)cc2[nH]c1=O`, for which the inhibition at 0.1 µM in the data set on MDA-MB-436 [6] was 24%. Also, in [2], the inhibition was 40.9%.
Consider `CCc1cc2ncc(CN3CC=C(c4ncc(C#N)cc4C)CC3)cc2[nH]c1=O`, for which the inhibition at 0.1 µM in the data set on MDA-MB-436 [6] is -10.9%. Also, in data set [2], the inhibition was 15.9%.
In the same order, the values of `CCc1cc2ncc(CN3CC=C(c4cc(F)c(C)c(F)c4)CC3)cc2[nH]c1=O` are 22.2% and 27.5%.
For the compound `CCc1cc2ncc(CN3CCN(c4ccc([N+](=O)[O-])cc4F)CC3)cc2[nH]c1=O`, in the data set with MDA-MB-436 [1], the IC50 was found to be 1.8 nM.
Turning to `CCc1cc2ncc(CN3CC=C(c4ccncc4C#N)CC3)cc2[nH]c1=O`, the inhibition at 0.1 µM with MDA-MB-436 [6] amounted to 9.8%. For the same compound, the inhibition in [2] is 13.7%.
For `CCc1cc2ncc(CN3CC=C(c4cnccc4C(=O)NC)CC3)cc2[nH]c1=O`, the inhibition at 0.1 µM in the data set with MDA-MB-436 [6] stood at 18.5%. In data set [2], the inhibition came out at 7.4%.
With `CCc1cc2ncc(CN3CCN(c4ccc(C(=O)NC)nc4F)CC3)cc2[nH]c1=O`, the half-inhibitory concentration (IC50) in the data set on MDA-MB-436 [1] amounted to 2.8 nM; in [3] it was 88 nM; in data set [5], 0.65 nM. The inhibition in data set [2] worked out at 95.2%; in data set [4], 93.8%.
For the compound `CCc1cc2ncc(CN3CC=C(c4c(F)cc(C#N)cc4F)CC3)cc2[nH]c1=O`, the inhibition at 0.1 µM in the data set with MDA-MB-436 [6] came to 16.3%. The inhibition in [2] worked out at 10.5%.
Consider `CCc1cc2ncc(CN3CC=C(c4ncc(C(=O)NC)nc4C)CC3)cc2[nH]c1=O`, for which, in the data set on MDA-MB-436 [6], the inhibition at 0.1 µM was 41.1%. Further, the inhibition was determined as 77.2% in data set [2] and 85.4% in [4].
In the case of `CNC(=O)c1ccc(N2CCN(Cc3cnc4cc(C5CC5)c(=O)[nH]c4c3)CC2)c(F)n1`, the concentration for half-maximal inhibition (IC50) in the data set on MDA-MB-436 [1] was found to be 4.1 nM.
Consider `CCc1cc2ncc(CN3CC=C(c4cnc(C(=O)NC)nc4)CC3)cc2[nH]c1=O`, for which the inhibition at 0.1 µM with MDA-MB-436 [6] stood at 52.6%. The IC50 in the data set on MDA-MB-436 [1] came out at 29.1 nM. Further, the inhibition in [2] stood at 47.1%.
With `CCc1cc2ncc(CN3CC=C(c4ccc(C#N)cc4)CC3)cc2[nH]c1=O`, the inhibition at 0.1 µM in the data set with MDA-MB-436 [6] is 37.9%. Further, the inhibition in data set [2] is 75.6%; in data set [4], 91.7%.
